US20090186047A1, “HCV Vaccinations” (INTERCELL AG, priority 2006, published 2009)

Test system: HCV peptide-specific T cells (MHC class I-restricted CD8+ / MHC class II-restricted CD4+)
Assay: IFN-γ ELIspot assay of spleen cells after vaccination of mice
Assay type: in vivo, HLA-A*0201 transgenic mice (HHD.2)
Procedure: Vaccine: clinical batch PD03127 (lot K) Injection volume of 100 μl per mouse contains:
As adjuvant: Poly-L-Arginine with an average degree of polymerisation of 40 to 50 arginine residues (determined by multiple angle laser light scattering (MALLS)); lot 113K7277; Sigma Aldrich Inc.; 400 μg • Additional adjuvant: Aldara™ containing 5% Imiquimod, an immunostimulatory agent acting via TLR7; 3M Health Care Ltd.; dose: approx 20 mg/mouse • Formulation buffer: 5 mM phosphate/270 mM sorbitol Experimental set-up 10 mice per group • 1. subcutaneous injection into the flank • 2. intradermal injection into the back • 3. intradermal injection into the back followed by immediate application of Aldara™ cream at injection area
On days 0, 14 and 28 mice were injected with a total amount of 100 μl/vaccine/mouse containing the above listed compounds at different sites as indicated. Spleens were harvested for each experimental group on day 35 and enriched for CD4^+ T cells by magnetic separation (MACS). CD4^+ T cell-depleted spleen cells were used to determine the CD8^+ T cell response. MHC class II restricted (CD4^+ T cells) as well as MHC class I restricted T cell responses (CD8^+ T cells) against each single HCV-derived peptide were determined using an IFN-7 ELIspot assay. In general, restimulation with an irrelevant peptide induced no IFN-7 production.
Vaccine: Injection volume of 100 μl per mouse contains: As antigens: Ipep 83 200 μg, Ipep 84 200 μg, Ipep 87 200 μg, Ipep 89 200 μg, Ipep 1426 200 μg As adjuvant: Poly-L-Arginine with an average degree of polymerization of 40 to 50 arginine residues (determined by MALLS); lot 113K7277; Sigma Aldrich Inc.; 400 μg • Additional adjuvant: Aldara™ containing 5% Imiquimod, an immunostimulatory agent acting via TLR7; 3M Health Care Ltd.; dose: approx 20 mg/mouse • Formulation buffer: 5 mM phosphate/270 mM sorbitol Experimental set-up 30 mice per group (10 per time point of analysis) • 1. intradermal injection into the back • 2. intradermal injection into the back followed by immediate application of Aldara™ cream at injection area […]

[1] = Example 1: subcutaneous injection into the flank, days 0, 14 and 28, spleens day 35

## GYKVLVLNPSVAAT [Ipep 84]
[1]
  MHC class I-restricted CD8+ T cell response (IFN-γ ELIspot): could be detected
  MHC class II-restricted CD4+ T cell response (IFN-γ ELIspot): could be detected
Example 2: two intradermal injections, day 21
  IFN-γ production by MHC class I-restricted CD8+ T cells: induced in comparable strength
